Measured values reported in PubChem BioAssay AID1963828 (Molecular Pharmacology Branch, DTP, NCI, 2024).

Test system: 991263-137-R1-J2-PDC complex spheroid viability
Assay: Anticancer human tumor 991263-137-R1-J2-PDC patient-derived colon adenocarcinoma cell line growth inhibition [POLQ]
Settings: for IC50: curve of first compound; for viability, T/C: stronger effect = lower value
Description: Multicellular complex tumor spheroid response to Polymerase (POL) inhibitors (novobiocin, ART-558, RP6685) in combination with a variety of drugs and investigational agents in selected tumor cell lines
The POL inhibitors (novobiocin, ART-558, and RP6685) were evaluated both individually and in combination with standard of care and investigational anticancer small molecules within a complex spheroid model of solid tumors. . Complex spheroids include a stromal component modeled by human endothelial cells (HUVEC) and fibroblasts modeled by human mesenchymal stem cells (MSCs). The concentration ranges selected for each drug and investigational agent were based upon clinically achievable concentrations if the clinical Cmax of the agent was known.
Compounds. The drugs and investigational agents: novobiocin (NSC847541), ART-558 (NSC835418), RP-6685 (NSC848927), peposertib (NSC802822), ceralasertib (NSC780249), elimusertib (NSC800525), camonsertib (NSC841442), AZD-1390 (NSC803789), olaparib (NSC753686), talazoparib (NSC767125), rucaparib (NSC756644), sotorasib (NSC818433), MRTX-1133 (NSC836407), SN-38 (NSC673596), topotecan (NSC609699), epotoside (NSC141540), doxorubicin (NSC123127), gemcitabine (NSC613327), 5-fluorouracil (NSC19893), paclitaxel (NSC125973), vemurafenib (NSC761431), MSA-2 (NSC828583), SN-011 (NSC837082), adavosertib (NSC754352), prexasertib (NSC758257), carboplatin (NSC241240) and oxaliplatin (NSC266046), were obtained from the National Cancer Institute (NCI) Developmental Therapeutics Program Chemical Repository (21). The FDA-approved anticancer drug set is available from the Developmental Therapeutics Program at https://dtp.cancer.gov/organization/dscb/obtaining/. […] The stock solutions were prepared in dimethyl sulfoxide (DMSO, Sigma-Aldrich, St. Louis, MO, cat. D2650), except for the platinum compounds which were prepared in saline (Quality Biological, Gaithersburg, MD, cat. 114-055-101), at 800-fold the tested concentration and stored at -70 degrees C prior to their use. All drugs and investigational agents were tested over a range starting from a high concentration at or near the clinical Cmax and decreasing in half-log increments. If the clinical Cmax for an agent had not been determined, the highest concentration tested was 10 microM, except for SN-38, which was tested at a high concentration of 1 microM.
Cell Culture. All cells were maintained in an incubator at 37 degrees C and 5% CO2 with 95% humidity. The PDC lines were cultured according to standard operating procedures established by the NCI PDMR (https://pdmr.cancer.gov). Table 3 of the manuscript, lists the cell lines along with the number of the three cell types plated to form the mct-spheroids and media for tumor cell growth. After thawing, all PDC lines, except 997537-175-T-J1-PDC and 415267-285-R-J2-PDC, were cultured in Matrigel-coated flasks prepared with a working solution of 1X Ham's F-12 nutrient mix, without supplementation (Thermo Fisher Scientific, cat. 11765054), 100 U/mL penicillin-streptomycin (Thermo Fisher Scientific, cat. 15140122), and 2.5% Matrigel (Corning Inc., Corning, NY, cat. 354248) for the first three passages. The two PDC lines 997537-175-T-J1-PDC and 415267-285-R-J2-PDC were cultured on uncoated flasks. The 857933-349-R-J2-PDC line was cultured in 6C/Colon 1B media containing advanced DMEM/F-12 (Thermo Fisher Scientific, cat. 12634028), 10 mM HEPES (Thermo Fisher Scientific, cat. 15630080), 1X GlutaMAX supplement (Thermo Fisher Scientific, cat. 35050061), 0.1 mg/mL primocin (InvivoGen, San Diego, CA, cat. ant-pm-2), 10% defined fetal bovine serum, heat inactivated (HyClone Laboratories Inc., Logan, UT, cat. SH30070.03HI), 50% L-WRN conditioned media (ATCC, cat. CRL-3276), 1.25 mM N-Acetyl-L-cysteine (Sigma-Aldrich, cat. A9165), 10 mM nicotinamide (Sigma-Aldrich, cat. N0636), 1X B-27 supplement (Thermo Fisher Scientific, cat. 17504044), 1X N-2 supplement (Thermo Fisher Scientific, cat. […]
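Further: spheroids exposed to compounds for 7 days before readout.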
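Wherever viability, T/C is given: 100% = DMSO vehicle control viability.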

CCCS(=O)(=O)Nc1ccc(F)c(C(=O)c2c[nH]c3ncc(-c4ccc(Cl)cc4)cc23)c1F + Cc1cccc(N(C)C(=O)C2C(O)CCN2c2nc(C)cc(C(F)(F)F)c2C#N)c1
IC50 (second compound 0.0316 µM): > 10 µM
IC50 (second compound 0.1 µM): > 10 µM
IC50 (second compound 0.316 µM): > 10 µM
IC50 (second compound 1 µM): > 10 µM
IC50 (second compound 3.16 µM): > 10 µM
IC50 (second compound 10 µM): > 10 µM
viability, T/C (second compound 0.0316 µM, first compound 0.0316 µM): 112%
viability, T/C (second compound 0.0316 µM, first compound 0.1 µM): 98.6%
viability, T/C (second compound 0.0316 µM, first compound 0.316 µM): 98%
viability, T/C (second compound 0.0316 µM, first compound 1 µM): 103%
viability, T/C (second compound 0.0316 µM, first compound 3.16 µM): 106%
viability, T/C (second compound 0.0316 µM, first compound 10 µM): 99.9%
viability, T/C (second compound 0.1 µM, first compound 0.0316 µM): 103%
viability, T/C (second compound 0.1 µM, first compound 0.1 µM): 109%
viability, T/C (second compound 0.1 µM, first compound 0.316 µM): 105%
viability, T/C (second compound 0.1 µM, first compound 1 µM): 114%
viability, T/C (second compound 0.1 µM, first compound 3.16 µM): 106%
viability, T/C (second compound 0.1 µM, first compound 10 µM): 104%
viability, T/C (second compound 0.316 µM, first compound 0.0316 µM): 101%
viability, T/C (second compound 0.316 µM, first compound 0.1 µM): 102%
viability, T/C (second compound 0.316 µM, first compound 0.316 µM): 85.2%
viability, T/C (second compound 0.316 µM, first compound 1 µM): 97.5%
viability, T/C (second compound 0.316 µM, first compound 3.16 µM): 101%
viability, T/C (second compound 0.316 µM, first compound 10 µM): 106%
viability, T/C (second compound 1 µM, first compound 0.0316 µM): 96.8%
viability, T/C (second compound 1 µM, first compound 0.1 µM): 97.5%
viability, T/C (second compound 1 µM, first compound 0.316 µM): 95.5%
viability, T/C (second compound 1 µM, first compound 1 µM): 95.7%
viability, T/C (second compound 1 µM, first compound 3.16 µM): 100%
viability, T/C (second compound 1 µM, first compound 10 µM): 92.3%
viability, T/C (second compound 3.16 µM, first compound 0.0316 µM): 99.8%
viability, T/C (second compound 3.16 µM, first compound 0.1 µM): 96.7%
viability, T/C (second compound 3.16 µM, first compound 0.316 µM): 93.5%
viability, T/C (second compound 3.16 µM, first compound 1 µM): 99.1%
viability, T/C (second compound 3.16 µM, first compound 3.16 µM): 109%
viability, T/C (second compound 3.16 µM, first compound 10 µM): 84.5%
viability, T/C (second compound 10 µM, first compound 0.0316 µM): 101%
viability, T/C (second compound 10 µM, first compound 0.1 µM): 98.5%
viability, T/C (second compound 10 µM, first compound 0.316 µM): 97.3%
viability, T/C (second compound 10 µM, first compound 1 µM): 92.5%
viability, T/C (second compound 10 µM, first compound 3.16 µM): 101%
viability, T/C (second compound 10 µM, first compound 10 µM): 89.2%
